Results reported in the NIST ThermoML archive (doi:10.1016/j.jct.2014.07.023).

Test: molar heat capacity at constant pressure; xn = mol fraction of the nth substance listed
Conditions: 100 kPa, Liquid, Small sample (50 mg) DSC

CCC(O)CO (stereo not drawn) [1,2-butanediol] + CO
molar heat capacity at constant pressure [J/K/mol]
Conditions	293.15 K	298.15 K	303.15 K	308.15 K	313.15 K	318.15 K	323.15 K
x1 = 0.0476	87.09	88.16	89.28	90.46	91.68	92.97	94.33
x1 = 0.2098	110.52	111.89	113.35	114.81	116.36	117.95	119.55
x1 = 0.2964	123.04	124.67	126.29	127.97	129.69	131.42	133.19
x1 = 0.3913	137.52	139.33	141.14	143	144.86	146.72	148.64
x1 = 0.4706	148.79	150.69	152.65	154.55	156.51	158.53	160.49
x1 = 0.6016	168.53	170.74	172.88	175.02	177.24	179.38	181.52
x1 = 0.6991	182.48	184.81	187.13	189.46	191.71	194.03	196.36
x1 = 0.8042	198.84	201.2	203.65	206.01	208.45	210.81	213.25
x1 = 0.8917	211.25	213.85	216.37	218.97	221.48	224	226.43
x1 = 0.9224	216.09	218.66	221.31	223.88	226.45	229.02	231.59
x1 = 0.9627	222	224.64	227.27	229.91	232.46	235.01	237.65
x1 = 1	228.1	230.8	233.5	236.21	238.91	241.52	244.23

CC(O)CCO (stereo not drawn) [1,3-butanediol] + CO
molar heat capacity at constant pressure [J/K/mol]
Conditions	293.15 K	298.15 K	303.15 K	308.15 K	313.15 K	318.15 K	323.15 K
x1 = 0.097	92.98	94.08	95.24	96.45	97.77	99.12	100.56
x1 = 0.1924	105.32	106.66	108.04	109.47	110.98	112.54	114.18
x1 = 0.2893	118.06	119.57	121.13	122.79	124.45	126.21	128.02
x1 = 0.3902	131.62	133.42	135.23	137.09	139	140.97	142.94
x1 = 0.4943	145.68	147.68	149.69	151.69	153.82	155.95	158.19
x1 = 0.6067	161	163.22	165.51	167.79	170.15	172.5	174.92
x1 = 0.7843	185.37	187.93	190.57	193.28	195.92	198.72	201.51
x1 = 0.9064	202.23	205.11	207.99	210.95	213.91	216.88	219.93
x1 = 0.9165	203.63	206.44	209.34	212.24	215.22	218.21	221.28
x1 = 0.9242	204.61	207.52	210.44	213.44	216.44	219.44	222.53
x1 = 0.9624	210.08	213.07	216.06	219.14	222.22	225.38	228.55
x1 = 1	215.84	218.9	222.06	225.21	228.37	231.61	234.86

OCCCCO [1,4-butanediol] + CO
molar heat capacity at constant pressure [J/K/mol]
Conditions	293.15 K	298.15 K	303.15 K	308.15 K	313.15 K	318.15 K	323.15 K
x1 = 0.1009	92.1	93.2	94.34	95.55	96.84	98.2	99.61
x1 = 0.1972	103.34	104.65	106	107.43	108.87	110.35	111.91
x1 = 0.2955	114.99	116.42	117.94	119.47	121.14	122.81	124.59
x1 = 0.4144	129.16	130.79	132.48	134.21	136.07	137.97	139.99
x1 = 0.5093	140.68	142.41	144.26	146.17	148.2	150.29	152.45
x1 = 0.624	154.46	156.51	158.55	160.74	162.92	165.25	167.5
x1 = 0.6996	163.59	165.7	167.88	170.13	172.46	174.93	177.4
x1 = 0.8004	175.9	178.18	180.54	182.97	185.48	188.08	190.75
x1 = 0.8591	183.21	185.59	188.05	190.59	193.21	195.91	198.7
x1 = 0.9043	188.15	190.69	193.23	195.85	198.55	201.34	204.22
x1 = 0.9565	194.9	197.44	200.07	202.87	205.67	208.56	211.63
x1 = 1	201.15	203.76	206.56	209.44	212.33	215.39	218.54

CC(O)C(C)O (stereo not drawn) [2,3-butanediol] + CO
molar heat capacity at constant pressure [J/K/mol]
Conditions	293.15 K	298.15 K	303.15 K	308.15 K	313.15 K	318.15 K	323.15 K
x1 = 0.0456	86.73	87.8	88.95	90.13	91.37	92.66	94.01
x1 = 0.0847	92.44	93.66	94.92	96.21	97.54	98.95	100.35
x1 = 0.1972	108.82	110.3	111.78	113.35	114.96	116.61	118.31
x1 = 0.2792	121.32	122.96	124.65	126.34	128.08	129.81	131.6
x1 = 0.3824	136.66	138.56	140.46	142.41	144.36	146.37	148.43
x1 = 0.4673	150.38	152.39	154.41	156.48	158.55	160.68	162.81
x1 = 0.5862	168.13	170.37	172.69	174.93	177.25	179.63	182.01
x1 = 0.7041	186.64	189.05	191.46	193.94	196.41	198.89	201.45
x1 = 0.8169	204.52	207.14	209.84	212.55	215.17	217.87	220.58
x1 = 0.8832	214.76	217.34	220.01	222.68	225.26	227.93	230.59
x1 = 0.9271	221.76	224.59	227.34	230.18	233.01	235.93	238.77
x1 = 0.9501	225.38	228	230.7	233.32	236.11	238.82	241.61
x1 = 1	233.95	236.66	239.36	242.07	244.77	247.47	250.18
